Experimental data as given in article PMC9482650, “Quantitative fragmentomics allow affinity mapping of interactomes” (Nature Communications, 2022).
Like-named read-outs stand apart in the source and are kept apart here. Ends that are not written are not given here.

What was measured:
SCRIB2 PDZ = target: T1, SCRIB2 PDZ (Homo sapiens, UniProt Q14160); experiment: Holdup assay; type: binding
T1 sequence (Q14160 862-950 limits assumed): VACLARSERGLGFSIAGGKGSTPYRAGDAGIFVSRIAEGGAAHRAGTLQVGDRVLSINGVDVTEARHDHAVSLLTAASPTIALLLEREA

DLG1_1 PDZ = DLG1_1 PDZ (Homo sapiens, UniProt Q12959); experiment: Holdup assay; type: binding
SNX27 PDZ = SNX27 PDZ (Homo sapiens, UniProt Q96L92); experiment: Holdup assay; type: binding
TX1BP3 PDZ = target: T2, TX1BP3 PDZ (Homo sapiens, UniProt O14907); experiment: Holdup assay; type: binding
T2 sequence (O14907 15-112 limits assumed): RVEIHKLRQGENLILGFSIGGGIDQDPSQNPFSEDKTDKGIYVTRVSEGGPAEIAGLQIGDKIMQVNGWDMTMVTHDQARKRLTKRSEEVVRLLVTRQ

DLG1_2 PDZ = DLG1_2 PDZ (Homo sapiens, UniProt Q12959); experiment: Holdup assay; type: binding
SCRIB_1 PDZ = SCRIB_1 PDZ (Homo sapiens, UniProt Q14160); experiment: Holdup assay; type: binding
SYNJ2BP PDZ = target: T3, SYNJ2BP PDZ (Homo sapiens, UniProt P57105); experiment: Holdup assay; type: binding
T3 sequence (P57105 13-100 limits assumed): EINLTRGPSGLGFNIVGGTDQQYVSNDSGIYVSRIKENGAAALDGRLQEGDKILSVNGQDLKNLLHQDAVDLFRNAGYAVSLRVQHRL

MAST2 PDZ = target: T4, MAST2 PDZ (Homo sapiens, UniProt Q6P0Q8); experiment: biochemical; type: binding
T4 sequence (Q6P0Q8 1104-1192 limits assumed): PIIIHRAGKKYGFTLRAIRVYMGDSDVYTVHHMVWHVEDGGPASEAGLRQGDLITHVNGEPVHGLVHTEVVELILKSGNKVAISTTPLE

Htra1 = conditions: SPR; ref Murwantoko et al 2004; cited from earlier work
Excerpt: (§1) Supplement 41467_2022_33018_MOESM4_ESM.xlsx, sheet "reference DMI interactome" | column: Affinity (mM); pKd, measured in literature

Htra2 = conditions: SPR; ref Murwantoko et al 2004; cited from earlier work
Excerpt: as §1

HEK293T cells = experiment: Label-free MS proteome of stable cell lines expressing HPV16 E6 or E6ΔPBM; type: cell-based, human; conditions: protein level
Protocol: HEK293T and HeLa cells were authenticated and found 100% identity to ATCC cat. CRL-3216 and ATCC cat. CCL-2, respectively. Jurkat and HaCat cell lines were not authenticated (original source: ECACC and Deutsches Krebsforschungszentrum DKFZ, respectively). HeLa cells were grown in DMEM (1 g/L glucose, Gibco) medium completed with 5% FCS and 40 μg/mL gentamicin, diluted every 3rd/4th day 1/10. HaCat cells were grown in DMEM (1 g/L glucose, Gibco) medium completed with 10% FCS and 40 μg/mL gentamicin, diluted every 3rd/4th day 1/4. Jurkat cells were grown in RPMI (Gibco) medium completed with 10% FCS and 40 μg/mL gentamicin, diluted every 3rd/4th day 1/12. All cells were kept at 37 °C and 5% CO2. For proteomics analyses cells were seeded on T-175 flasks. After they reached confluency, adherent cells were washed with PBS once and collected by scraping with ice-cold lysis buffer (Hepes-KOH pH 7.5 50 mM, NaCl 150 mM, Triton X-100 1%, complete EDTA-free protease inhibitor cocktail 1×, EDTA 2 mM, TCEP 5 mM, glycerol 10%). Jurkat cells were collected by 1000 g × centrifugation, washed once with PBS, then collected by 1000 g × 5 min centrifugation again and lysed in ice-cold lysis buffer. Lysates were sonicated 4 × 20 s with 1 s long pulses on ice, then incubated rotating at 4 °C for 30 min. Lysates were centrifuged at 12,000 rpm 4 °C for 20 min and supernatant was kept for further analysis. Concentration determination was carried out by standard Bradford method (Bio-Rad Protein Assay Dye Reagent #5000006) using BSA (MP BIomedicals #160069) as control on a Bio-Rad SmartSpec 3000 spectrophotometer instrument.
The samples were precipitated with TCA 20% overnight at 4 °C and centrifuged at 14,000 rpm for 10 min at 4 °C. The protein pellets were washed twice with 1 mL cold acetone and air dried. The protein extracts were solubilized in urea 8 M, reduced with 5 mM TCEP for 30 min, and alkylated with 10 mM iodoacetamide for 30 min in the dark. Double digestion was performed at 37 °C with 500 ng endoproteinase Lys-C for 4 h, followed by fourfold dilution and an overnight digestion with 500 ng trypsin. Peptide mixtures were then desalted on C18 spin-column and dried on Speed-Vacuum.
Samples were analyzed using an Ultimate 3000 nano-RSLC (Thermo Scientific, San Jose California) coupled in line with a LTQ-Orbitrap ELITE mass spectrometer via a nano-electrospray ionization source (Thermo Scientific, San Jose California). Peptide mixtures were injected in 0.1% TFA on a C18 Acclaim PepMap100 trap-column (75 µm ID × 2 cm, 3 µm, 100 Å, Thermo Fisher Scientific) for 3 min at 5 µL/min with 2% ACN, 0.1% FA in H2O and then separated on a C18 Accucore nano-column (75 µm ID × 50 cm, 2.6 µm, 150 Å, Thermo Fisher Scientific) at 220 nl/min and 38 °C with a 90 min linear gradient from 5% to 30% buffer B (A: 0.1% FA in H2O/B: 99% ACN, 0.1% FA in H2O), regeneration at 5% B. The mass spectrometer was operated in positive ionization mode, in data-dependent mode with survey scans from m/z 350–1500 acquired in the Orbitrap at a resolution of 120,000 at m/z 400. The 20 most intense peaks from survey scans were selected for further fragmentation in the Linear Ion Trap with an isolation window of 2.0 Da and were fragmented by CID with normalized collision energy of 35%. (TOP20CID method) Unassigned and single charged states were excluded from fragmentation. The Ion Target Value for the survey scans (in the Orbitrap) and the MS2 mode (in the Linear Ion Trap) were set to 1E6 and 5E3 respectively and the maximum injection time was set to 100 ms for both scan modes. Dynamic exclusion was set to 20 s after one repeat count with mass width at ±10 ppm.
Proteins were identified by database searching using SequestHT (Thermo Fisher Scientific) with Proteome Discoverer 2.4 software (PD2.4, Thermo Fisher Scientific) on human FASTA database downloaded from SwissProt (reviewed, release 2020_11_27, 20304 entries, https://www.uniprot.org/). […]

[1] = holdup affinity of the PBM peptide of the named protein, sheet PBMcomplexome, lower sub-table
[2] = holdup affinity of the PBM peptide of the named protein, sheet PBMcomplexome, lower sub-table, 3.5 appears to be the floor for no detectable binding, read-out: affinity of PBM to TX1BP3 (pKd) (converted)
[3] = holdup affinity of the PBM peptide of the named protein, sheet PBMcomplexome, lower sub-table, 3.5 appears to be the floor for no detectable binding, read-out: affinity of PBM to DLG1_2 (pKd) (converted)
[4] = holdup affinity of the PBM peptide of the named protein, sheet PBMcomplexome, lower sub-table, 3.5 appears to be the floor for no detectable binding, read-out: affinity of PBM to SCRIB_1 (pKd) (converted)
[5] = PBM motif of the named protein vs SCRIB_2 PDZ, read-out: pKd values – domain-motif, SCRIB_2 (converted)
[6] = PBM motif of the named protein vs DLG1_1 PDZ, read-out: pKd values – domain-motif, DLG1_1 (converted)
[7] = PBM motif of the named protein vs TX1BP3 PDZ, read-out: pKd values – domain-motif, TX1BP3 (converted)
[8] = PBM motif of the named protein vs DLG1_2 PDZ, read-out: pKd values – domain-motif, DLG1_2 (converted)
[9] = PBM motif of the named protein vs SCRIB_1 PDZ, read-out: pKd values – domain-motif, SCRIB_1 (converted)

Sequence of SCRIB_1 PDZ (Q14160 728-815 limits assumed): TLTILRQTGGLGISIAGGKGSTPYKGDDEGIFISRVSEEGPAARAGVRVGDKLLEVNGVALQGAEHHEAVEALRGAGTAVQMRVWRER

Compound | Kd (SNX27 PDZ; [1]) [µM] | Kd (SCRIB2 PDZ; [5]) [µM] | Kd (DLG1_1 PDZ; [6]) [µM] | Kd (SNX27 PDZ) [µM] | Kd (TX1BP3 PDZ; [7]) [µM] | Kd (DLG1_2 PDZ; [8]) [µM] | Kd (SCRIB_1 PDZ; [9]) [µM] | also measured
DDENIRTSDV [PLEKHA2] | 14.5 | – | – | – | – | – | – | Kd (SCRIB2 PDZ; holdup affinity of the PBM peptide of the named protein, sheet PBMcomplexome, lower sub-table, 3.5 appears to be the floor for no detectable binding, read-out: affinity of PBM to SCRIB_2 (pKd) (converted)): 178 µM; Kd (DLG1_1 PDZ; holdup affinity of the PBM peptide of the named protein, sheet PBMcomplexome, lower sub-table, 3.5 appears to be the floor for no detectable binding, read-out: affinity of PBM to DLG1_1 (pKd) (converted)): 158 µM; Kd (TX1BP3 PDZ; [2]): 17.8 µM; Kd (DLG1_2 PDZ; [3]): 34.7 µM; Kd (SCRIB_1 PDZ; [4]): 178 µM
PPRQRSETQV [HPV82E6] | – | – | – | – | – | – | – | Kd (SYNJ2BP PDZ): 13.7 µM
DTKNYKQTSV [CRIPT] | – | 24.5 | 44.7 | 4.68 | 3.98 | 8.51 | 13.2 | –
CC(C)C[C@H](NC(=O)[C@H](CC(=O)O)NC(=O)[C@@H]1CCCN1C(=O)[C@@H](NC(=O)CNC(=O)[C@H](CCC(=O)O)NC(=O)[C@H](CO)NC(=O)[C@H](CO)NC(=O)[C@H](CC(N)=O)NC(=O)[C@H](CC(C)C)NC(=O)[C@@H](N)CC(N)=O)C(C)C)C(=O)N[C@@H](CC(C)C)C(=O)N[C@H](C(=O)O)C(C)C [SARS-CoV-E] | – | – | – | – | – | – | – | Kd (MAST2 PDZ): 253 µM
EKPIDSETKM [SLC1A3] | 6.61 | – | – | – | – | – | – | –
KKKKGQYYFV [HtrA2-Opt] | – | – | – | – | – | – | – | pKd, measured in literature (Htra1): 8.42; pKd, measured in literature (Htra2): 7.7167
QSARYRDTEL [TJP2 (ZO2)] | – | 126 | 209 | 20.4 | 17.4 | 170 | 34.7 | –
TSQESEDTYL [TBC1D10A] | 5.37 | – | – | – | – | – | – | Kd (SCRIB_1 PDZ; [4]): 102 µM
FHPLGADSQV [SLC2A1] | – | – | – | 89.1 | 170 | 132 | 95.5 | –
QGLAERISVL [PRKD2] | 16.6 | – | – | – | – | – | – | Kd (TX1BP3 PDZ; [2]): 41.7 µM; Kd (DLG1_2 PDZ; [3]): 214 µM; Kd (SCRIB_1 PDZ; [4]): 170 µM
EVVHTPETSV [SLC16A3] | – | 33.1 | 135 | 7.08 | 145 | 50.1 | 8.32 | –
LDSQIQETSI [MAP4] | – | 35.5 | 229 | 1.86 | 110 | 42.7 | 2.75 | –
TBCD | – | – | – | – | – | – | – | Difference log2 E6/Ctrl (HEK293T cells; E6 cell line vs control): 0.5689; Ratio E6/Ctrl (HEK293T cells; E6 cell line vs control): 1.483; Difference log2 dPBM/E6 (HEK293T cells; dPBM cell line vs E6 cell line): -3.03; Ratio dPBM/E6 (HEK293T cells; dPBM cell line vs E6 cell line): 0.1225; Difference log2 dPBM/Ctrl (HEK293T cells; dPBM cell line vs control): -2.461; Ratio dPBM/Ctrl (HEK293T cells; dPBM cell line vs control): 0.1817
